Laboratory results published in article PMC10878532, “Sperm Toolbox—A selection of small molecules to study human spermatozoa” (PLOS ONE, 2024).
Counter-ions that a name gives are not always drawn.

What was measured:
human spermatozoa [1] = assay: Acrosome assay, protocol 1 (3h incubation with compound, no agonist; flow cytometry, PNA); format: cell-based; conditions: assay 'Acrosome', incubation_time 3h
Procedure: The acrosome assays utilize a high-throughput flow cytometer (S1 Fig) to score for compounds inducing the acrosome reaction, using peanut agglutinin conjugated to a fluorescent dye to label the outer acrosomal membrane. We have developed two different screening protocols, named ‘acrosome 1’ and ‘acrosome 2’ (S1 Fig). […] This addition allowed measurement of inhibition of acrosome reaction (Fig 2B).
(§1) In both experimental protocols, 20 μL of pooled cells (at 1 M/mL concentration) were capacitated for 3 h in presence of compounds at 37°C and 5% CO2. In protocol a, cells were then stained with PNA-Alexa647 (ThermoFisher, 1 mg/mL, final dilution 1:1000) and Hoechst dye for 30 min at 37°C and 5% CO2, followed by 10 min fixation at RT by adding 20 μL of 4% paraformaldehyde (Sigma) in PBS. In mode b, a cocktail of progesterone, prostaglandin A and NH4Cl was added to all compound wells and incubated for an additional 1 h at 37°C and 5% CO2 to induce acrosome reaction. This was followed by fixation and staining protocol as for mode a. In both protocols fixatives and stains were removed and cells were resuspended in PBS, using a 405 platewasher. Plates were then measured on a Novocyte Advanteon high-throughput flow cytometer. Gating of data has been performed using the flow cytometer software to export counts of gated populations. The Acrosome 1 protocol using 3h incubation with compounds was run in 7 separate donor pools. The Acrosome 2 protocol using 3h incubation with compound followed by 1h stimulation of acrosome reaction was run in 5 separate donor pools.
(§2) For cell painting imaging data, plates of images were imported into OMERO [70]. Cell segmentation and feature extraction were performed using CellProfiler 3 [71] and using instructions from to normalize data. Timelapse data of motility assays was processed as previously described. Acrosome flow cytometry data was processed using NovoCyte Express (PerkinElmer), to gate out background debris, select for single cells and calculate percentage values of acrosome positive events. Sperm viability flow cytometry data was processed using iQue Forecyt (Satorius) to gate out background debris, select for single cells and calculate percentage values of propidium iodide positive events. For all sperm functional assays, data was normalized to DMSO control wells. Each plate had 16 DMSO wells. A median value of all 16 wells was used to calculated percentage change (pct_ch = ((value / DMSO_median) -1) * 100). For sperm viability we calculated fold-change (fc = 1 − (value / DMSO_median)). For each compound we calculated a p-value using a Welch’s t-test implemented in scipy (scipy.stats.ttest_ind) comparing a compounds effect to DMSO controls.

spermatozoa = system: spermatozoa; parameters: method as in per compound as listed in column References of Table 1; conditions: summaries of reported effects; ref per compound as listed in Table 1; cited from earlier work
human spermatozoa [2] = assay: Motility assay (non-capacitating conditions); format: cell-based; conditions: for sperm motility and/or acrosome reacted cells (unsupervised clustering): cluster in Fig 3A heatmap, 30 μM
Procedure: (§3) To compare the effects of STB compounds on specific sperm functions (e.g. motility, acrosome reaction, viability), we screened them in multiple phenotypic functional assays described below. Each sperm function assay has been repeated in multiple donor pools (see Materials and methods), where each pool consists of cells donated from at least 3 different donors to address donor to donor variability. Each compound has been tested at two concentrations, 10 and 30 μM, and normalized to vehicle controls (DMSO, see Materials and methods). We have modified our assays from the previously published workflow by increasing incubation time and introducing conditions that support capacitation, which is a sperm maturation process required for fertilization. These changes expand the range of targets that we can explore in our assays. Our live-sperm-based high-throughput motility assays use an automated microscope to record short timelapse movies. These assays can be run in different protocols (S1 Fig). […] In this protocol, cells are incubated with compounds for 10 min prior to the first motility read-out. A second and third motility read-out were performed after 3h and 6h incubation. The second protocol, denoted ‘capacitation assay’, utilises conditions that support capacitation (S1 Fig). In this protocol, cells are kept in conditions supporting capacitation for 30 minutes prior to 30 minutes incubation with compound, followed by motility read-out. Both protocols allow sperm motility to be measured (0.5 sec time-lapse movies allow tracking of cells and calculation of sperm kinematics). In addition, the capacitation assay also scores hyperactivation (i.e. distinct movement patterns concomitant with capacitation which are crucial for fertilization) (Fig 2A).
Cells were rested for 1 h post density gradient centrifugation. 10 μL assay buffer was dispensed into assay ready plates, plates were put onto a shaker instrument for 30 seconds using 1,000 rpm, followed by a short pulse centrifugation. Plates were incubated for 15–30 mins at 37°C prior to addition of 10 μL of pooled cells (at 1 M/mL concentration). Plates were then incubated in a Yokogawa CV7000 microscope set at 37°C for 10 min prior to imaging. Imaging a 384-well plate requires ≤ 20 min using the following settings: 2 positions per well, 0.5 sec timelapse movies (3x binning; 11 ms exposure time, 22 ms interval time, […]). A second and a third timepoint was recorded after 3 h, and 6 h incubation at 37°C. Data has been processed as described in [8]. Assay results are from 5 separate donor pools.
as §2

human spermatozoa [3] = assay: Authors' own unpublished screening campaigns ('This study'); format: cell-based
Source text: Because there is so little known about the molecular mechanisms that control sperm motility, we are unable to develop hypotheses of potential targets when new hits are identified in the sperm motility assay. However, it is now well-established that features derived from images in phenotypic assays, when compared to phenotypes measured on reference compounds, can accurately stratify genetic or chemical perturbations in phenotypic screens. […] Compound annotations are included in the dataset derived from the STB and indicate that Enzymes/Kinases, Receptors, Channels and Transporters are the most represented target of the STB compound classes (Fig 1D).
List of compounds included in Sperm Toolbox. Published Phenotypes are summaries of reported effects on sperm function related to other processes (e.g. spermatogenesis, liquefaction, or ejaculation).

LRRK2 kinase = conditions: annotated as; cited from earlier work
HeLa = HeLa cell painting cytotoxicity assay; format: cell-based; conditions: 24h compound incubation
Procedure: The HeLa-based assay uses the cell painting assay [11], while the HepG2 assay utilizes a resazurin based viability read-out [64].
Cell were incubated with compounds for 24h.
• 10 μL of MitoTracker (Life Technologies, M22426, 1 mM stock in DMSO as recommended by the vendor) is added to 50 μL of media (1:2000 final dilution) • Phalloidin-Alexa594 (Life Technologies, A12381, 66 μM stock in methanol as recommended by the vendor, 1:500 final dilution) • WGA-Alexa594 (Life Technologies, W11262, 5 mg/mL stock, 1:250 final dilution) was used • DAPI (5 mg/mL stock; 1:1000 final dilution) was used to stain DNA • 20 μL of staining solution was used • PBS was used for washing steps
For cell painting imaging data, plates of images were imported into OMERO [70]. Cell segmentation and feature extraction were performed using CellProfiler 3 [71] and using instructions from [11] to normalize data.

human spermatozoa [4] = assay: Capacitation assay (motility and hyperactivation under capacitating conditions); format: cell-based; conditions: cluster in Fig 3A; 30 min capacitation then 30 min with compound
Procedure: as §3
Cells were capacitated for 30 min at 37°C and 5% CO2. 10 μL assay buffer was dispensed into assay ready plates, plates were put onto a shaker instrument for 30 seconds using 1,000 rpm, followed by a short pulse centrifugation. Plates were incubated for 15–30 mins at 37°C and 5% CO2 prior to addition of 10 μL of pooled cells (at 1 M/mL concentration). This was followed by a 20 min compound incubation step at 37°C and 5% CO2. Plates were then incubated in our CV7000 microscope set at 37°C and 5% CO2 for 10 min prior to imaging. […]
For cell painting imaging data, plates of images were imported into OMERO [70]. […] A median value of all 16 wells was used to calculated percentage change (pct_ch = ((value / DMSO_median) -1) * 100). For sperm viability we calculated fold-change (fc = 1 − (value / DMSO_median)). For each compound we calculated a p-value using a Welch’s t-test implemented in scipy (scipy.stats.ttest_ind) comparing a compounds effect to DMSO controls.

human spermatozoa [5] = assay: Sperm viability assay (propidium iodide, flow cytometry); format: cell-based; conditions: 3h with compound
Procedure: In this assay, cells are incubated for 3h with compound in non-capacitating media, prior to viability assessment.
Cells were incubated with compounds for a total of 3h at 37°C. 20 min prior, propidium iodide was added (1.5 mM solution, Sigma, final dilution 1:2000). Plates were analysed using a Satorius iQue Screener with settings to allow for a sampling time of ≤30 min per 384-well plate. Gating of data has been performed using the flow cytometer software to export counts of gated populations. This assay was tested in 5 separate donor pools.
as §2

human spermatozoa [6] = assay: Acrosome assay, protocol 2 (3h with compound, then 1h agonist cocktail); format: cell-based; conditions: cluster in Fig 3A; 3h with compound then agonist mix
Procedure: The acrosome assays utilize a high-throughput flow cytometer (S1 Fig) to score for compounds inducing the acrosome reaction, using peanut agglutinin conjugated to a fluorescent dye to label the outer acrosomal membrane. We have developed two different screening protocols, named ‘acrosome 1’ and ‘acrosome 2’ (S1 Fig). Both protocols are capable of measuring induction of the acrosome reaction upon compound incubation. However, in the acrosome 2 assay, a mixture of physiological agonists of the acrosome reaction is used after cells have been incubated with compounds for 3h under conditions that support capacitation. This addition allowed measurement of inhibition of acrosome reaction (Fig 2B).
as §1
as §2, with “Sperm viability flow cytometry data was processed using iQue Forecyt (Satorius) to gate out background debris, select for single cells and calculate percentage values of propidium iodide positive events. For all sperm functional assays, data was normalized to DMSO control wells. Each plate had 16 DMSO wells.” left out

HepG2 = HepG2 cytotoxicity assay (resazurin based); format: cell-based; conditions: 70h incubation
[7] = screening_concentration_M 9.99e-6
[8] = screening_concentration_M 2.991e-5

In the case of `N=C(N)Nc1nc2ccccc2[nH]1` [2-Guanidinobenzimidazole], the “ch (percentage change vs DMSO median), Acrosome” value (human spermatozoa [1]; [7]) is listed as 0.2236%, the “ch (percentage change vs DMSO median), Acrosome” value (human spermatozoa [1]; [8]) is listed as 0.07571% and the “Published Phenotype” value (spermatozoa) is listed as “Reduces sperm motility”.
In the case of `CNc1ccc2oc(C[C@H]3O[C@@]4(CC[C@H]3C)O[C@H]([C@H](C)C(=O)c3ccc[nH]3)[C@H](C)C[C@H]4C)nc2c1C(=O)O` [A23187], the “sperm motility and/or acrosome reacted cells (unsupervised clustering)” value (human spermatozoa [2]) is listed as “significant reduction of sperm motility and/or increased amounts of acrosome reacted cells” and the “Published Phenotype” value (spermatozoa) is listed as “Induces acrosome reaction”.
With `NC(=O)Nc1cc(-c2cccc(F)c2)sc1C(=O)N[C@H]1CCCNC1` [AZD 7762 hydrochloride] the “Phenotype observed in own screening campaigns (Published Phenotype, References 'This study')” value (“Phenotype observed” below) (human spermatozoa [3]) was “Reduces sperm motility”.
In the case of `CCCCC(CC)CNC(=N)NC(=N)NCCCCCCNC(=N)NC(=N)NCC(CC)CCCC` (stereo not drawn) [Alexidine dihydrochloride], the “sperm motility and/or acrosome reacted cells (unsupervised clustering)” value (human spermatozoa [2]) is listed as “significant reduction of sperm motility and/or increased amounts of acrosome reacted cells” and the “Published Phenotype” value (spermatozoa) is listed as “Reduces sperm motility”.
For `CCOc1ccc(-c2nc(-c3cccc4c3CCC4NCCO)no2)cc1OCC` (stereo not drawn) [CYM 5442 hydrchloride], the “Phenotype observed” value (human spermatozoa [3]) was “Reduces sperm motility; induces acrosome reaction”.
For `COc1cc(N2CCOCC2)ccc1Nc1ncc(F)c(Nc2ccccc2NS(C)(=O)=O)n1` [CZC 25146], the sperm motility (human spermatozoa [2]) is listed as “decrease sperm motility” and the LRRK2 inhibition (LRRK2 kinase) is listed as “potent LRRK2 inhibitor”.
For `Nc1nc(Cl)nc2c1ncn2[C@@H]1O[C@H](CO)[C@@H](O)[C@@H]1F` [Clofarabine], the “general cytotoxicity (HeLa)” value (HeLa) is listed as “do not show effects”, the “Published Phenotype” value (spermatozoa) is listed as “Enhances sperm motility” and the hyperactive motility (human spermatozoa [4]) is listed as “significantly increased”. The “effects on sperm viability” value (human spermatozoa [5]) was “do not show effects”, the “acrosome reaction (acrosome reacted cells)” value (shortened to “acrosome reaction”) (human spermatozoa [6]) was “significantly increased” and the “general cytotoxicity (HepG2)” value (HepG2) was “do not show effects”.
For `Clc1ccc(C(OCCN2CCCCC2)c2ccccc2)cc1` (stereo not drawn) [Cloperastine hydrochloride], the “Phenotype observed” value (human spermatozoa [3]) was “Reduces sperm motility”.
With `CCS(=O)(=O)Nc1ccc2c(c1)/C(=C(/Nc1ccc(CN3CCCCC3)cc1)c1ccccc1)C(=O)N2` [Hesperadin hydrochloride] the “Phenotype observed” value (human spermatozoa [3]) was “Reduces sperm motility”.
In the case of `C[C@]1(O)C[C@@H](c2nc(-c3ccc4ccc(-c5ccccc5)nc4c3)c3c(N)nccn32)C1` [Linsitinib], the “general cytotoxicity (HeLa)” value (HeLa) is listed as “do not show effects”, the “Published Phenotype” value (spermatozoa) is listed as “enhances sperm motility” and the hyperactive motility (human spermatozoa [4]) is listed as “significantly increased”. For the same compound, the “effects on sperm viability” value (human spermatozoa [5]) was “do not show effects”, the “acrosome reaction” value (human spermatozoa [6]) was “significantly increased” and the “general cytotoxicity (HepG2)” value (HepG2) was “do not show effects”.
With `Cc1ccc(S(=O)(=O)c2ccc([N+](=O)[O-])o2)cc1` [NSC 697923] the “Phenotype observed” value (human spermatozoa [3]) was “Reduces sperm motility”.
For `[O-][S+](c1ccccc1)c1ccc2nnnn2n1` (stereo not drawn) [Ro 106–9920], the “Phenotype observed” value (human spermatozoa [3]) was “Reduces sperm motility”.
For `CCCCCCCCOc1ccc(-c2noc([C@@H]3CCCN3C(=N)N)n2)cc1C(F)(F)F` [SLM 6031434 hydrochloride], the “Phenotype observed” value (human spermatozoa [3]) was “Induces acrosome reaction”.
In the case of `COc1cc(C)c2c(Oc3cccc(C(F)(F)F)c3)c(OC)cc(NC(C)CCCN)c2n1` (stereo not drawn) [Tafenoquine], the “Phenotype observed” value (human spermatozoa [3]) was “Reduces sperm motility; induces acrosome reaction” and the “sperm motility and/or acrosome reacted cells (unsupervised clustering)” value (human spermatozoa [2]) was “significant reduction of sperm motility and/or increased amounts of acrosome reacted cells”.
For `COc1cc2c(cc1OC)-c1c/c(=N\c3c(C)cc(C)cc3C)n(C)c(=O)n1CC2` [Trequinsin hydrochloride], the “general cytotoxicity (HeLa)” value (HeLa) is listed as “do not show effects”, the “Published Phenotype” value (spermatozoa) is listed as “Increases hyperactivated sperm; increases penetration of sperm into viscous media, increases motility” and the hyperactive motility (human spermatozoa [4]) is listed as “significantly increased”. For the same compound, the “effects on sperm viability” value (human spermatozoa [5]) was “do not show effects”, the “acrosome reaction” value (human spermatozoa [6]) was “significantly increased” and the “general cytotoxicity (HepG2)” value (HepG2) was “do not show effects”.
In the case of `O=C(N1CCCCC1)N1CCCCC1Cc1ccccc1` (stereo not drawn) [compound 183], the “ch (percentage change vs DMSO median), Acrosome” value (human spermatozoa [1]; [7]) is given as 0.955%, the “ch (percentage change vs DMSO median), Acrosome” value (human spermatozoa [1]; [8]) is given as 1.376% and the “Published Phenotype” value (spermatozoa) is given as “Reduces acrosome reaction”.
